# Assay results: article PMC12542666, “Mechanistic insights into the dimethylsulfoniopropionate synthesis enzyme BurB” (Applied and Environmental Microbiology, 2025)
# Read-outs that look alike come from different tables or passages of the source.
# Key:
# BurB = assay type: biochemical, Burkholderia thailandensis
# [1] = target: BurB from Burkholderia thailandensis (Burkholderia thailandensis); experiment: SEC
compound,measurement,setting,value
CSCC[C@H](N)C(=O)O [Met],Km,"BurB; pH 9.0, 40 °C",16.6 mM
BurB from Burkholderia thailandensis (enzyme),stoichiometry N,[1],4
C[S+](CC[C@H](N)C(=O)O)C[C@H]1O[C@@H](n2cnc3c(N)ncnc32)[C@H](O)[C@@H]1O (stereo partly drawn) [SAM],Km,BurB,1.8 mM
